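Method: 48-hour compound exposure of cells in 96-well plates, five concentrations, linear interpolation of endpoints. The concentration for 50% growth inhibition is given as GI50.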 Activity calls are given as the source filed them. Cut-off read from the data, not from the text of the source: active = GI50 up to about 1.1 µM and inactive = higher.
Tests used:
Assay in all cases: inhibition of tumour cell growth, NCI panel, 48 h
SF-539 = tested on: SF-539
HOP-92 = tested on: HOP-92
SK-MEL-2 = tested on: SK-MEL-2
MDA-MB-231 = tested on: MDA-MB-231
SN12C = tested on: SN12C
M14 = tested on: M14
PC-3 = tested on: PC-3
Hs-578T = tested on: Hs-578T
Malme-3M = tested on: Malme-3M
HL-60 = tested on: HL-60
SK-MEL-5 = tested on: SK-MEL-5
K562 = tested on: K562
OVCAR-8 = tested on: OVCAR-8
MOLT-4 = tested on: MOLT-4
CAKI-1 = tested on: CAKI-1
SK-OV-3 = tested on: SK-OV-3
NCI-H460 = tested on: NCI-H460
BT-549 = tested on: BT-549
UACC-257 = tested on: UACC-257

Row | Structure (SMILES) | GI50 (SF-539) | GI50 (HOP-92) | GI50 (SK-MEL-2) | GI50 (MDA-MB-231) | GI50 (SN12C) | GI50 (M14) | GI50 (PC-3) | GI50 (Hs-578T) | GI50 (Malme-3M) | GI50 (HL-60) | GI50 (SK-MEL-5) | GI50 (K562) | GI50 (OVCAR-8) | GI50 (MOLT-4) | GI50 (CAKI-1) | GI50 (SK-OV-3) | GI50 (NCI-H460) | GI50 (BT-549) | GI50 (UACC-257)
1 | C[C@@H]1CCC2[C@@H](C)[C@@H](OCCO[C@H]3OC4O[C@@]5(C)CCC6[C@H](C)CCC([C@H]3C)[C@@]46OO5)OC3O[C@@]4(C)CCC1[C@]32OO4 (stereo partly specified) | 0.202 µM (active) | 2.64 µM (inactive) | 0.292 µM (active) | 2.21 µM (inactive) | 0.541 µM (active) | 0.379 µM (active) | 0.0174 µM (active) | 0.211 µM (active) | 0.182 µM (active) | 0.0583 µM (active) | 0.301 µM (active) | 0.0212 µM (active) | 0.0982 µM (active) | 0.0483 µM (active) | 0.0652 µM (active) | 0.577 µM (active) | 0.151 µM (active) | 0.883 µM (active) | 0.39 µM (active)
2 | COc1ccc(C(NS(=O)(=O)c2ccc(C)cc2)c2c(C(CBr)OC)c3ccccc3n2S(=O)(=O)c2ccccc2)cc1OC (stereo unspecified) | > 100 µM (inactive) | 85.5 µM (inactive) | > 100 µM (inactive) | 52.8 µM (inactive) | > 100 µM (inactive) | > 100 µM (inactive) | > 100 µM (inactive) | > 100 µM (inactive) | > 100 µM (inactive) | > 100 µM (inactive) | > 100 µM (inactive) | > 100 µM (inactive) | > 100 µM (inactive) | > 100 µM (inactive) | > 100 µM (inactive) | > 100 µM (inactive) | > 100 µM (inactive) | > 100 µM (inactive) | > 100 µM (inactive)
3 | CCOC(=O)C1C2C1C1C(C(=O)OCC)C21 (stereo unspecified) | > 100 µM (inactive) | > 100 µM (inactive) | > 100 µM (inactive) | > 100 µM (inactive) | > 100 µM (inactive) | > 100 µM (inactive) | > 100 µM (inactive) | > 100 µM (inactive) | > 100 µM (inactive) | 63.8 µM (inactive) | > 100 µM (inactive) | > 100 µM (inactive) | > 100 µM (inactive) | > 100 µM (inactive) | > 100 µM (inactive) | > 100 µM (inactive) | > 100 µM (inactive) | > 100 µM (inactive) | 61 µM (inactive)
4 | O=c1ccs[nH]1 | 5.92 µM (inactive) | 16.7 µM (inactive) | 28.3 µM (inactive) | 14.7 µM (inactive) | 11.1 µM (inactive) | 9.89 µM (inactive) | 12.9 µM (inactive) | 22 µM (inactive) | 8.91 µM (inactive) | 3.13 µM (inactive) | 5.78 µM (inactive) | 7.82 µM (inactive) | 12.7 µM (inactive) | 4.53 µM (inactive) | 9.46 µM (inactive) | 26.3 µM (inactive) | 9.08 µM (inactive) | 16.8 µM (inactive) | 8.91 µM (inactive)
5 | Cc1cc(C)nc(NS(=O)(=O)c2ccc(NN=c3c4ccccc4n(C)c4ccccc34)cc2)n1 | 44.4 µM (inactive) | 15.6 µM (inactive) | 15.1 µM (inactive) | 21.3 µM (inactive) | 42.8 µM (inactive) | 35.5 µM (inactive) | 22 µM (inactive) | 32.4 µM (inactive) | 35.6 µM (inactive) | 28.9 µM (inactive) | 17.2 µM (inactive) | 16.7 µM (inactive) | 30.1 µM (inactive) | 15.5 µM (inactive) | 21.5 µM (inactive) | 27.2 µM (inactive) | 29.6 µM (inactive) | 8.95 µM (inactive) | 39.3 µM (inactive)
6 | CC(=O)NC1C(OCc2ccccc2)OC(CO)C(O)C1OC(C)C(=O)NC(C(=O)NC(CCC(=O)NCCCCNc1c2ccccc2nc2cccc([N+](=O)[O-])c12)C(N)=O)C(C)C (stereo unspecified) | 3.3 µM (inactive) | 1.28 µM (inactive) | 2.52 µM (inactive) | 2.71 µM (inactive) | 1.71 µM (inactive) | 1.62 µM (inactive) | 2.67 µM (inactive) | 8.57 µM (inactive) | 1.82 µM (inactive) | 1.65 µM (inactive) | 2.22 µM (inactive) | 0.458 µM (active) | 1.91 µM (inactive) | 0.515 µM (active) | 3.37 µM (inactive) | 8.73 µM (inactive) | 0.887 µM (active) | 5.97 µM (inactive) | 3.14 µM (inactive)
7 | O=[N+]([O-])c1oc2ccc3ccccc3c2c1CCO | 3.28 µM (inactive) | 3.5 µM (inactive) | 1.85 µM (inactive) | 11.1 µM (inactive) | 6.21 µM (inactive) | 1.94 µM (inactive) | 13.1 µM (inactive) | 5.22 µM (inactive) | 1.78 µM (inactive) | 1.74 µM (inactive) | 0.546 µM (active) | 1.96 µM (inactive) | 3.44 µM (inactive) | 1.04 µM (active) | 2.25 µM (inactive) | 1.05 µM (active) | 0.0479 µM (active) | 2.29 µM (inactive) | 1.94 µM (inactive)
8 | C=C1[C@H](OCC(C)C)[C@@H](O)[C@@H](OC(=O)c2cccnc2)C(C)(C)/C=C/[C@H](C)[C@H](OC(C)=O)[C@@]2(O)C[C@@](C)(OC(C)=O)[C@H](OC(=O)c3ccccc3)[C@@H]2[C@H]1OC(C)=O | 0.482 µM (active) | 0.723 µM (active) | > 2.13 µM (inactive) | > 2.54 µM (inactive) | > 3.1 µM (inactive) | 0.977 µM (active) | 1.66 µM (inactive) | 0.0895 µM (active) | 0.187 µM (active) | 0.0695 µM (active) | 0.332 µM (active) | 0.0585 µM (active) | 1.22 µM (inactive) | 0.138 µM (active) | 0.488 µM (active) | > 3.02 µM (inactive) | 0.0126 µM (active) | 1.66 µM (inactive) | 2.9 µM (inactive)
9 | CCc1nc(N)nc(N)c1-c1ccc2c(c1)nnn2CCc1ccccc1 | 21.3 µM (inactive) | 38.4 µM (inactive) | 28.2 µM (inactive) | 26.1 µM (inactive) | 22.5 µM (inactive) | 4.66 µM (inactive) | 4.63 µM (inactive) | 30.7 µM (inactive) | 19.5 µM (inactive) | 3.02 µM (inactive) | 8.53 µM (inactive) | 1.55 µM (inactive) | 4.95 µM (inactive) | 8.91 µM (inactive) | 11.2 µM (inactive) | 45.4 µM (inactive) | 2.32 µM (inactive) | 22.9 µM (inactive) | 22.2 µM (inactive)
10 | CC(C)=CCCC(C)CCOS(=O)C(F)(F)F (stereo unspecified) | 31.3 µM (inactive) | 18.7 µM (inactive) | 16.9 µM (inactive) | 16.6 µM (inactive) | 7.93 µM (inactive) | 1.35 µM (inactive) | 18 µM (inactive) | 1.16 µM (inactive) | 3.15 µM (inactive) | 2.88 µM (inactive) | 15.8 µM (inactive) | 3.78 µM (inactive) | 6.78 µM (inactive) | 2.58 µM (inactive) | 25.2 µM (inactive) | 22.1 µM (inactive) | 16.1 µM (inactive) | 5.24 µM (inactive) | 19.5 µM (inactive)
11 | COc1ccc(C2=NN(C(=O)c3ccccc3)C(O)(c3cc(F)c(Cl)cc3Cl)C2)cc1OC (stereo unspecified) | 43.1 µM (inactive) | 21.4 µM (inactive) | 29 µM (inactive) | 42.2 µM (inactive) | 94.4 µM (inactive) | 73.6 µM (inactive) | 31.3 µM (inactive) | 34.5 µM (inactive) | 57.9 µM (inactive) | > 100 µM (inactive) | > 100 µM (inactive) | > 100 µM (inactive) | 48.4 µM (inactive) | 8.61 µM (inactive) | 27.5 µM (inactive) | 20.9 µM (inactive) | 83.2 µM (inactive) | > 100 µM (inactive) | 60.4 µM (inactive)
12 | O=C1N/C(=N/N=C/C(O)C(O)C(O)C(O)CO)N/C1=C\c1c[nH]c2ccccc12 (stereo unspecified) | > 100 µM (inactive) | > 100 µM (inactive) | 28.3 µM (inactive) | 34.2 µM (inactive) | > 100 µM (inactive) | > 100 µM (inactive) | 20.3 µM (inactive) | > 100 µM (inactive) | > 100 µM (inactive) | 48.4 µM (inactive) | > 100 µM (inactive) | 83.9 µM (inactive) | > 100 µM (inactive) | 93.8 µM (inactive) | > 100 µM (inactive) | > 100 µM (inactive) | > 100 µM (inactive) | > 100 µM (inactive) | > 100 µM (inactive)
13 | Nc1cc(C2CCCc3c2[nH]c2ccccc32)ccc1O (stereo unspecified) | > 100 µM (inactive) | 56.8 µM (inactive) | 31.9 µM (inactive) | 84.5 µM (inactive) | 65.2 µM (inactive) | 6.19 µM (inactive) | 38.5 µM (inactive) | 69.8 µM (inactive) | 33 µM (inactive) | 14.2 µM (inactive) | 6 µM (inactive) | 6.56 µM (inactive) | 24.3 µM (inactive) | 4.79 µM (inactive) | 25.2 µM (inactive) | > 100 µM (inactive) | > 100 µM (inactive) | 35.2 µM (inactive) | 42.4 µM (inactive)
14 | CCOC(OCC)C(CCc1ccccc1)c1c(N)nc(N)[nH]c1=O (stereo unspecified) | > 100 µM (inactive) | 29.6 µM (inactive) | 53 µM (inactive) | > 100 µM (inactive) | 56.8 µM (inactive) | 80.5 µM (inactive) | 39.3 µM (inactive) | > 100 µM (inactive) | > 100 µM (inactive) | 25.2 µM (inactive) | 47.6 µM (inactive) | 24.7 µM (inactive) | > 100 µM (inactive) | 34.3 µM (inactive) | 34.9 µM (inactive) | 25.9 µM (inactive) | 56.8 µM (inactive) | 86.9 µM (inactive) | > 100 µM (inactive)

Source: ChEMBL document CHEMBL1201862, “PubChem BioAssay data set” (2004)
